Measured values: patent publication US11547644B2, “Emulsions comprising cationic emulsifiers based on MDIPA ester quats” (Evonik Operations GmbH, priority 2015, dated 2023)

Key:
[1] = system: Daphnia Magna; assay: Daphnia Magna Reproduction Test (OECD 211); conditions: in vivo
Description: (§1) Consequently, an emulsifier according to the invention (Example 2) was investigated compared to distearyldimonium chloride with the help of various OECD tests.

[2] = Biodegradability in water, OECD 301
Description: as §1

[3] = system: invertebrate aquatic animals; assay: Acute Immobilization Test (OECD 202); type: in vivo
Description: as §1

## CCCCCCCCCCCCCCCCCC[N+](C)(C)CCCCCCCCCCCCCCCCCC.[Cl-] [Distearyldimonium Chloride]
[1]
  Long-term toxicity towards invertebrate aquatic animals, NOEC(21 d): NOEC(21 d) = 0.38 mg/l
[2]
  Biodegradability in water: OECD 301: 3% (28 d)
[3]
  Short-term toxicity towards invertebrate aquatic animals, EC50(48h): EC-50(48h) = 0.16 mg/l
